# Data reported in patent US7511145B2 (Genelabs Technologies, Inc., priority 2003, dated 2009).
# Biological target: T1, HCV-NS5b (Hepatitis C virus genotype 1b, UniProt Q9WMX2)
# T1 construct: (His)6 (C); made in house; host or cells: XL-1 cells (E. coli), IPTG-inducible plasmid, nickel-NTA purification
# Experiment: HCV-NS5b enzyme assay (incorporation of radiolabeled UTP)
# Format: biochemical
# Conditions: for inhibition at 33 µM: enzyme inhibition at compound concentration of 33 uM; for inhibition at 100 µM: read-out: % inh@100, enzyme inhibition at compound concentration of 100 uM
# Text: The coding sequence of NS5b protein was cloned by PCR from pFKI389luc/NS3-3′/ET as described by Lohmann, V., et al. (1999) Science 285, 110-113 using the following primers: […]
# The cloned fragment was missing the C terminus 21 amino acid residues. The cloned fragment was inserted into an IPTG-inducible expression plasmid that provided an epitope tag (His)6 at the carboxy terminus of the protein.
# The recombinant enzyme was expressed in XL-1 cells and after induction of expression, the protein was purified using affinity chromatography on a nickel-NTA column. Storage condition was 10 mM Tris-HCl pH 7.5, 50 mM NaCl, 0.1 mM EDTA, 1 mM DTT, 20% glycerol at −20° C.
# The polymerase activity was assayed by measuring incorporation of radiolabeled UTP into a RNA product using a biotinylated, heteropolymeric template, which included a portion of the HCV genome. Typically, the assay mixture (50 μL) contained 10 mM Tris-HCl (pH 7.5), 5 mM MgCl2, 0.2 mM EDTA, 10 mM KCl, 1 unit/μL RNAsin, 1 mM DTT, 10 μM each of NTP, including [^3H]-UTP, and 10 ng/μL heteropolymeric template. Test compounds were initially dissolved in 100% DMSO and further diluted in aqueous buffer containing 5% DMSO. Typically, compounds were tested at concentrations between 1 nM and 100 μM. Reactions were started with addition of enzyme and allowed to continue at 37° C. for 2 hours. Reactions were quenched with 8 μL of 100 mM EDTA and reaction mixtures (30 μL) were transferred to streptavidin-coated scintillation proximity microtiter plates (FlashPlates) and incubated at 4° C. overnight. Incorporation of radioactivity was determined by scintillation counting.
# Shown in Table IX below are the values for enzyme inhibition measured at compound concentrations of 100 and 33 uM, (% inh@[…] and % inh@33, respectively). The percent inhibition values are calculated from the differential incorporation of radioactivity compared to a control reaction without compound: % inhibition=100−[(CountsINH−CountsBKG)/CountsCTRL−CountsBKG)×100 where CountsINH is the signal of the testwell with inhibitor, CountsBKG is the background signal and CountsCTRL is the signal of a testwell without inhibitor.
Compound,inhibition at 33 µM [%],inhibition at 100 µM [%]
"O=C1COc2ccc(-c3ccc4cc(-c5nc6cc(C(=O)O)ccc6n5C5CCCCC5)ccc4n3)cc2N1 [Compound 465, 1-cyclohexyl-2-[2-(3-oxo-3,4-dihydro-2H-benzo[1,4]oxazin-6-yl)-quinolin-6-yl]-1H-benzoimidazole-5-carboxylic acid]",98.8,101
"COc1ccc(-c2ccc(Cl)c(Cl)c2)c(-c2ccc3cc(-c4nc5cc(C(=O)O)ccc5n4C4CCCCC4)ccc3n2)c1 [Compound 403, 1-cyclohexyl-2-[2-(3′,4′-dichloro-4-methoxy-biphen-2-yl)-quinolin-6-yl]-1H-benzoimidazole-5-carboxylic acid]",99.4,99.9
"O=C(O)c1ccc2c(c1)nc(-c1ccc3nc(CCn4cccn4)ccc3c1)n2C1CCCCC1 [Compound 476, 1-cyclohexyl-2-[2-(2-pyrazol-1-yl-ethyl)-quinolin-6-yl]-1H-benzoimidazole-5-carboxylic acid]",97.3,97.1
"Cc1cc(-c2ccccc2Br)nc2ccc(-c3nc4cc(C(=O)O)ccc4n3C3CCCCC3)cc12 [Compound 471, 2-[2-(2-Bromo-phenyl)-4-methyl-quinolin-6-yl]-1-cyclohexyl-1H-benzoimidazole-5-carboxylic acid]",97.8,99.8
"CCOc1cc(-c2ccccc2)nc2ccc(-c3nc4cc(C(=O)O)ccc4n3C3CCCCC3)cc12 [Compound 494, 1-cyclohexyl-2-(4-ethoxy-2-phenyl-quinolin-6-yl)-1H-benzoimidazole-5-carboxylic acid]",94.8,99.2
"Cc1cc(-c2nc3cc(C(=O)O)ccc3n2C2CCCCC2)cc2ccc(-c3ccccc3-c3ccccc3)nc12 [Compound 379, 2-(2-Biphen-2-yl-8-methyl-quinolin-6-yl)-1-cyclohexyl-1H-benzoimidazole-5-carboxylic acid]",93.3,97.8
"COc1ccc(-c2ccccc2F)c(-c2ccc3cc(-c4nc5cc(C(=O)O)ccc5n4C4CCCCC4)ccc3n2)c1 [Compound 544, 1-Cyclohexyl-2-[2-(2′-fluoro-4-methoxy-biphen-2-yl)-quinolin-6-yl]-1H-benzoimidazole-5-carboxylic acid]",102,100
Cc1nc(N)sc1-c1ccc2cc(-c3nc4cc(C(=O)O)ccc4n3C3CCCCC3)ccc2n1 [Compound 391],94.1,97.5
"O=C(O)c1ccc2c(c1)nc(-c1ccc3nc(-c4ccc(N5CCOCC5)cc4)ccc3c1)n2C1CCCCC1 [Compound 429, 1-cyclohexyl-2-[2-(4-morpholin-4-yl-phenyl)-quinolin-6-yl]-1H-benzoimidazole-5-carboxylic acid]",96.2,101
"O=C(O)c1ccc2c(c1)nc(-c1ccc3nc(-c4cc([N+](=O)[O-])ccc4-c4ccc(Cl)cc4)ccc3c1)n2C1CCCCC1 [Compound 439, 2-[2-(4′-chloro-4-nitro-biphen-2-yl)-quinolin-6-yl]-1-cyclohexyl-1H-benzoimidazole-5-carboxylic acid]",99.2,97
"COc1ccc(-c2ccc(Cl)cc2)c(-c2ccc3cc(-c4nc5cc(C(=O)O)cnc5n4C4CCCCC4)ccc3n2)c1 [Compound 537, 2-[2-(4′-chloro-4-methoxy-biphen-2-yl)-quinolin-6-yl]-3-cyclohexyl-3H-imidazo[4,5-b]pyridine-6-carboxylic acid]",100,99.8
"CCC(CC)n1c(-c2ccc3nc(-c4cc(OC)ccc4-c4ccc(Cl)cc4)ccc3c2)nc2cc(C(=O)O)ccc21 [Compound 564, 2-[2-(4′-Chloro-4-methoxy-biphen-2-yl)-quinolin-6-yl]-1-(1-ethyl-propyl)-1H-benzoimidazole-5-carboxylic acid]",102,101
"COc1ccc2occ(-c3ccc4cc(-c5nc6cc(C(=O)O)ccc6n5C5CCCCC5)ccc4n3)c2c1 [Compound 493, 1-cyclohexyl-2-[2-(5-methoxy-benzofuran-3-yl)-quinolin-6-yl]-1H-benzoimidazole-5-carboxylic acid]",101,100
"CCOCCOc1ccc(-c2ccc(Cl)cc2)c(-c2ccc3cc(-c4nc5cc(C(=O)O)ccc5n4C4CCCCC4)ccc3n2)c1 [Compound 507, 2-{2-[4′-Chloro-4-(2-ethoxy-ethoxy)-biphen-2-yl]-quinolin-6-yl}-1-cyclohexyl-1H-benzoimidazole-5-carboxylic acid]",101,101
"O=C(N[C@@H](Cc1c[nH]cn1)C(=O)O)c1ccc2c(c1)nc(-c1ccc3nc(-c4ccccc4)cnc3c1)n2C1CCCCC1 [Compound 247, 2-{[1-Cyclohexyl-2-(2-phenyl-quinoxalin-6-yl)-1H-benzoimidazole-5-carbonyl]-amino}-3-(1H-imidazol-4-yl)-propionic acid]",66.8,94.2
"O=C(N[C@@H](Cc1ccc(C(=O)c2ccccc2)cc1)C(=O)O)c1ccc2c(c1)nc(-c1ccc3nc(-c4ccccc4)cnc3c1)n2C1CCCCC1 [Compound 241, 3-(4-Benzoyl-phenyl)-2-{[1-cyclohexyl-2-(2-phenyl-quinoxalin-6-yl)-1H-benzoimidazole-5-carbonyl]-amino}-propionic acid]",98,98.4
"COc1ccc(-c2nc3ccc(-c4nc5cc(C(=O)O)ccc5n4C4CCCCC4)cc3nc2-c2ccc(OC)cc2)cc1 [Compound 441, 2-[2,3-Bis-(4-methoxyphenyl)quinoxalin-6-yl]-1-cyclohexyl-1H-benzimidazole-5-carboxylic acid]",97.3,98.8
"O=C(O)c1ccc2c(c1)nc(-c1ccc3nc(C(c4ccccc4)c4ccccc4)ccc3c1)n2C1CCCCC1 [Compound 457, 2-(2-benzhydryl-quinolin-6-yl)-1-cyclohexyl-1H-benzoimidazole-5-carboxylic acid]",98.2,98.3
"O=C(O)c1ccc2c(c1)nc(-c1ccc3c(c1)CCC(c1ccccc1)N3)n2C1CCCCC1 (centres unmarked) [Compound 215, 1-Cyclohexyl-2-(2-phenyl-1,2,3,4-tetrahydro-quinolin-6-yl)-1H-benzoimidazole-5-carboxylic acid]",99.2,101
"CCOc1ccc(-c2ccc(OC)cc2-c2ccc3cc(-c4nc5cc(C(=O)O)ccc5n4C4CCCCC4)ccc3n2)cc1 [Compound 456, 1-cyclohexyl-2-[2-(4′-ethoxy-4-methoxy-biphen-2-yl)-quinolin-6-yl]-1H-benzoimidazole-5-carboxylic acid]",100,99.7
"O=C(O)c1ccc2c(c1)nc(-c1ccc3nc(-c4c(O)ccc5ccccc45)ccc3c1)n2C1CCCCC1 [Compound 460, 1-cyclohexyl-2-[2-(2-hydroxy-naphthalen-1-yl)-quinolin-6-yl]-1H-benzoimidazole-5-carboxylic acid]",101,102
"Cc1oc(-c2ccc(Cl)cc2)cc1-c1ccc2cc(-c3nc4cc(C(=O)O)ccc4n3C3CCCCC3)ccc2n1 [Compound 505, 2-{2-[5-(4-chloro-phenyl)-2-methyl-furan-3-yl]-quinolin-6-yl}-1-cyclohexyl-1H-benzoimidazole-5-carboxylic acid]",99.7,102
"O=C(O)c1ccc2c(c1)nc(-c1ccc3nc(-c4cc(C(=O)N5CCCC5)ccc4-c4ccc(Cl)cc4)ccc3c1)n2C1CCCCC1 [Compound 204, 2-{2-[4′-Chloro-4-(pyrrolidine-1-carbonyl)-biphen-2-yl]-quinolin-6-yl}-1-cyclohexyl-1H-benzoimidazole-5-carboxylic acid]",99.7,101
"COc1ccc(-c2ccccc2)c(-c2ccc3cc(-c4nc5cc(C(=O)O)ccc5n4C4CCCCC4)ccc3n2)c1 [Compound 499, 1-Cyclohexyl-2-[2-(4-methoxy-biphen-2-yl)-quinolin-6-yl]-1H-benzoimidazole-5-carboxylic acid]",101,99.7
"O=C(O)c1ccc2c(c1)nc(-c1ccc3nc(-c4ccnc5ccccc45)ccc3c1)n2C1CCCCC1 [Compound 423, 2-[2,4′]biquinolinyl-6-yl-1-cyclohexyl-1H-benzoimidazole-5-carboxylic acid]",102,102
